For twelve compounds, IC50 results are on record in patent US20240218022A1, “ANTI-VISTA MACROCYCLIC PEPTIDES AND COMPOSITIONS” (BRISTOL-MYERS SQUIBB COMPANY, priority 2022, published 2024).

SMILES strings stand for the structures. Starred links: 1 amine or outer side, 2 acyl side, 3 side chain; linkers in the order of their positions; H or OH if unused. Positions of bridges follow the written chain, without caps; N, C: chain ends. Non-standard residues stand in square brackets, D forms with d. Residues, ends and D or L forms follow the SMILES beside them. ξ: configuration not given here. γGlu = O=C(O)[C@H](CCC(=O)[*:2])N[*:1]; NMeThr(3ξ) = CN[C@H](C(=O)O)C(C)O; NMeL = CN[C@@H](CC(C)C)C(=O)O; Ahp(2) = CCCCC[C@H](N)C(=O)O; NMeNle = CCCC[C@H](NC)C(=O)O; Tle = CC(C)(C)[C@H](N)C(=O)O; NMeV = CN[C@H](C(=O)O)C(C)C; NHexGly = CCCCCCNCC(=O)O; Orn = NCCC[C@H](N)C(=O)O; Aun = NCCCCCCCCCCC(=O)O; AEEA = NCCOCCOCC(=O)O

The assay addresses T1, mouse VISTA (mVISTA) (Mus musculus, UniProt Q9D659).
T1 construct: expressed in transfected cells; host or cells: Human embryonic kidney 293T cells
T1 sequence (Q9D659 33-308): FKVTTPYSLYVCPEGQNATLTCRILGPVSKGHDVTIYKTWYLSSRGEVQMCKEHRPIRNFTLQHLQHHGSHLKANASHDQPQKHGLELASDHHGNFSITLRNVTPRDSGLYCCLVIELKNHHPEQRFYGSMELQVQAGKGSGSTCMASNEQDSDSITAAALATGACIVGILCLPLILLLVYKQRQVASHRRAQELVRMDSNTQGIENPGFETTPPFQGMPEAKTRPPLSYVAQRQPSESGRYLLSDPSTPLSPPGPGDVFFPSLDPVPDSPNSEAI
Description: Cell-Based Binding High-Content Assay For mVISTA (HC CBA mVISTA). As to conditions: read-out: HC CBA mVISTA IC50. In short, it runs like this:
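Competition of compound with a biotinylated peptide (final 2 nM, 30 min at RT) for binding to mVISTA on 293T cells, run under no-wash or wash (1 h compound preincubation then removal) formats. Readout by Alexa 647–streptavidin imaging on a high-content platform; four-parameter logistic fit gave IC50.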
The IC50 is the concentration needed to halve the response being measured. For the compound `CCCCCCN1CC(=O)N[C@@H](Cc2ccc(O)cc2)C(=O)N[C@@H](CC(C)C)C(=O)N[C@@H](CC(N)=O)C(=O)N[C@@H](CCCNC(=N)N)C(=O)N(C)[C@@H](CCCC)C(=O)N[C@@H](CCCCC)C(=O)N2CCC[C@H]2C(=O)N[C@@H](C(C)(C)C)C(=O)N[C@@H](CO)C(=O)N[C@H](C(=O)NCCOCCOCC(=O)N[C@@H](CCC(=O)NCCOCCOCC(=O)NCCCCCCCCCCC(=O)O)C(=O)O)CSCC(=O)N[C@@H](Cc2ccccc2)C(=O)N[C@@H](Cc2c[nH]c3ccccc23)C(=O)N[C@@H](CC(=O)O)C1=O` [compound 2268] ({CH2CO}-FWD[NHexGly]YLNR[NMeNle][Ahp(2)]P[Tle]SC[AEEA][γGlu][AEEA][Aun]-OH; thioether N-14), the 50% inhibitory concentration (IC50) came out at 16.1 nM. In the case of `CCCCCCN1CC(=O)N[C@@H](Cc2ccc(O)cc2)C(=O)N[C@@H](CC(C)C)C(=O)N[C@@H](CC(N)=O)C(=O)N[C@@H](CCCNC(=N)N)C(=O)N(C)[C@@H](CC(C)C)C(=O)N[C@@H](CCCCC)C(=O)N2CCC[C@H]2C(=O)N[C@@H](C(C)(C)C)C(=O)N[C@@H](CC(=O)O)C(=O)N[C@H](C(=O)NCCOCCOCC(=O)N[C@@H](CCC(=O)NCCOCCOCC(=O)NCCCCCCCCCCC(=O)O)C(=O)O)CSCC(=O)N[C@@H](Cc2ccccc2)C(=O)N[C@@H](Cc2c[nH]c3ccccc23)C(=O)N[C@@H](CC(=O)O)C1=O` [compound 2269] ({CH2CO}-FWD[NHexGly]YLNR[NMeL][Ahp(2)]P[Tle]DC[AEEA][γGlu][AEEA][Aun]-OH; thioether N-14) it was 28.2 nM; in that of `CCCCCCN1CC(=O)N[C@@H](Cc2ccc(O)cc2)C(=O)N[C@@H](CC(C)C)C(=O)N[C@@H](CC(N)=O)C(=O)N[C@@H](CCCNC(=N)N)C(=O)N(C)[C@@H](CC(C)C)C(=O)N[C@@H](CCCCC)C(=O)N2CCC[C@H]2C(=O)N[C@@H](C(C)(C)C)C(=O)N[C@@H](CO)C(=O)N[C@H](C(=O)NCCOCCOCC(=O)N[C@@H](CCC(=O)NCCOCCOCC(=O)NCCCCCCCCCCC(=O)O)C(=O)O)CSCC(=O)N[C@@H](Cc2ccccc2)C(=O)N[C@@H](Cc2ccc(O)cc2)C(=O)N[C@@H](CC(=O)O)C1=O` [compound 2270] ({CH2CO}-FYD[NHexGly]YLNR[NMeL][Ahp(2)]P[Tle]SC[AEEA][γGlu][AEEA][Aun]-OH; thioether N-14), 18.8 nM.

On to `CCCCCCN1CC(=O)N[C@@H](Cc2ccc(O)cc2)C(=O)N[C@@H](CC(C)C)C(=O)N[C@@H](CC(N)=O)C(=O)N[C@@H](CCCNC(=N)N)C(=O)N(C)[C@@H](C(C)C)C(=O)N[C@@H](CCCCC)C(=O)N2CCC[C@H]2C(=O)N[C@@H](C(C)(C)C)C(=O)N[C@@H](CO)C(=O)N[C@H](C(=O)NCCOCCOCC(=O)N[C@@H](CCC(=O)NCCOCCOCC(=O)NCCCCCCCCCCC(=O)O)C(=O)O)CSCC(=O)N[C@@H](Cc2ccccc2)C(=O)N[C@@H](Cc2ccc(O)cc2)C(=O)N[C@@H](CC(=O)O)C1=O` [compound 2271] ({CH2CO}-FYD[NHexGly]YLNR[NMeV][Ahp(2)]P[Tle]SC[AEEA][γGlu][AEEA][Aun]-OH; thioether N-14), for which the half-maximal inhibitory concentration (IC50) was found to be 25.4 nM. The result for `CCCCCCN1CC(=O)N[C@@H](Cc2ccc(O)cc2)C(=O)N[C@@H](CC(C)C)C(=O)N[C@@H](CC(N)=O)C(=O)N[C@@H](CCCNC(=N)N)C(=O)N(C)[C@@H](C(C)C)C(=O)N[C@@H](CCCCC)C(=O)N2CCC[C@H]2C(=O)N[C@@H](C(C)(C)C)C(=O)N[C@@H](CO)C(=O)N[C@H](C(=O)NCCOCCOCC(=O)N[C@@H](CCC(=O)NCCOCCOCC(=O)NCCCCCCCCCCC(=O)O)C(=O)O)CSCC(=O)N[C@@H](Cc2ccccc2)C(=O)N[C@@H](Cc2c[nH]c3ccccc23)C(=O)N[C@@H](CC(=O)O)C1=O` [compound 2272] ({CH2CO}-FWD[NHexGly]YLNR[NMeV][Ahp(2)]P[Tle]SC[AEEA][γGlu][AEEA][Aun]-OH; thioether N-14) reads 34.4 nM; that for `CCCCCCN1CC(=O)N[C@@H](Cc2ccc(O)cc2)C(=O)N[C@@H](CC(C)C)C(=O)N[C@@H](CC(N)=O)C(=O)N[C@@H](CCCNC(=N)N)C(=O)N(C)[C@@H](C(C)O)C(=O)N[C@@H](CCCCC)C(=O)N2CCC[C@H]2C(=O)N[C@@H](C(C)(C)C)C(=O)N[C@@H](CC(=O)O)C(=O)N[C@H](C(=O)NCCOCCOCC(=O)N[C@@H](CCC(=O)NCCOCCOCC(=O)NCCCCCCCCCCC(=O)O)C(=O)O)CSCC(=O)N[C@@H](Cc2ccccc2)C(=O)N[C@@H](Cc2c[nH]c3ccccc23)C(=O)N[C@@H](CC(=O)O)C1=O` (stereo partly drawn) [compound 2273] ({CH2CO}-FWD[NHexGly]YLNR[NMeThr(3ξ)][Ahp(2)]P[Tle]DC[AEEA][γGlu][AEEA][Aun]-OH; thioether N-14), 33.6 nM.

In the case of `CCCCCCN1CC(=O)N[C@@H](Cc2ccc(O)cc2)C(=O)N[C@@H](CC(C)C)C(=O)N[C@@H](CC(N)=O)C(=O)N[C@@H](CCCNC(=N)N)C(=O)N(C)[C@@H](C(C)C)C(=O)N[C@@H](CCCCC)C(=O)N2CCC[C@H]2C(=O)N[C@@H](C(C)(C)C)C(=O)N[C@@H](CC(=O)O)C(=O)N[C@H](C(=O)NCCOCCOCC(=O)N[C@@H](CCC(=O)NCCOCCOCC(=O)NCCCCCCCCCCC(=O)O)C(=O)O)CSCC(=O)N[C@@H](Cc2ccccc2)C(=O)N[C@@H](Cc2ccc(O)cc2)C(=O)N[C@@H](CC(=O)O)C1=O` [compound 2274] ({CH2CO}-FYD[NHexGly]YLNR[NMeV][Ahp(2)]P[Tle]DC[AEEA][γGlu][AEEA][Aun]-OH; thioether N-14), the IC50 worked out at 18.8 nM. For `CCCCCCN1CC(=O)N[C@@H](Cc2ccc(O)cc2)C(=O)N[C@@H](CC(C)C)C(=O)N[C@@H](CC(N)=O)C(=O)N[C@@H](CCCNC(=N)N)C(=O)N(C)[C@@H](C(C)O)C(=O)N[C@@H](CCCCC)C(=O)N2CCC[C@H]2C(=O)N[C@@H](C(C)(C)C)C(=O)N[C@@H](CC(=O)O)C(=O)N[C@H](C(=O)NCCOCCOCC(=O)N[C@@H](CCC(=O)NCCOCCOCC(=O)NCCCCCCCCCCC(=O)O)C(=O)O)CSCC(=O)N[C@@H](Cc2ccccc2)C(=O)N[C@@H](Cc2ccc(O)cc2)C(=O)N[C@@H](CC(=O)O)C1=O` (stereo partly drawn) [compound 2275] ({CH2CO}-FYD[NHexGly]YLNR[NMeThr(3ξ)][Ahp(2)]P[Tle]DC[AEEA][γGlu][AEEA][Aun]-OH; thioether N-14), the IC50 was determined as 31.8 nM. For `CCCCCCN1CC(=O)N[C@@H](Cc2ccc(O)cc2)C(=O)N[C@@H](CC(C)C)C(=O)N[C@@H](CC(N)=O)C(=O)N[C@@H](CCCNC(=N)N)C(=O)N(C)[C@@H](C(C)C)C(=O)N[C@@H](CCCCC)C(=O)N2CCC[C@H]2C(=O)N[C@@H](C(C)(C)C)C(=O)N[C@@H](CC(=O)O)C(=O)N[C@H](C(=O)NCCOCCOCC(=O)N[C@@H](CCC(=O)NCCOCCOCC(=O)NCCCCCCCCCCC(=O)O)C(=O)O)CSCC(=O)N[C@@H](Cc2ccccc2)C(=O)N[C@@H](Cc2c[nH]c3ccccc23)C(=O)N[C@@H](CC(=O)O)C1=O` [compound 2276] ({CH2CO}-FWD[NHexGly]YLNR[NMeV][Ahp(2)]P[Tle]DC[AEEA][γGlu][AEEA][Aun]-OH; thioether N-14), the IC50 was found to be 30 nM. In the case of `CCCCCCN1CC(=O)N[C@@H](Cc2ccc(O)cc2)C(=O)N[C@@H](CC(C)C)C(=O)N[C@@H](CC(N)=O)C(=O)N[C@@H](CCCNC(=N)N)C(=O)N(C)[C@@H](CCCC)C(=O)N[C@@H](CCCCC)C(=O)N2CCC[C@H]2C(=O)N[C@@H](C(C)(C)C)C(=O)N[C@@H](C(C)C)C(=O)N[C@H](C(=O)NCCOCCOCC(=O)N[C@@H](CCC(=O)NCCOCCOCC(=O)NCCCCCCCCCCC(=O)O)C(=O)O)CSCC(=O)N[C@@H](Cc2ccccc2)C(=O)N[C@@H](Cc2ccc(O)cc2)C(=O)N[C@@H](CC(=O)O)C1=O` [compound 2277] ({CH2CO}-FYD[NHexGly]YLNR[NMeNle][Ahp(2)]P[Tle]VC[AEEA][γGlu][AEEA][Aun]-OH; thioether N-14) it was 21.2 nM. In the case of `CCCCCCN1CC(=O)N[C@@H](Cc2ccc(O)cc2)C(=O)N[C@@H](CC(C)C)C(=O)N[C@@H](CC(N)=O)C(=O)N[C@@H](CCCN)C(=O)N(C)[C@@H](CCCC)C(=O)N[C@@H](CCCCC)C(=O)N2CCC[C@H]2C(=O)N[C@@H](C(C)(C)C)C(=O)N[C@@H](CO)C(=O)N[C@H](C(=O)NCCOCCOCC(=O)N[C@@H](CCC(=O)NCCOCCOCC(=O)NCCCCCCCCCCC(=O)O)C(=O)O)CSCC(=O)N[C@@H](Cc2ccccc2)C(=O)N[C@@H](Cc2ccc(O)cc2)C(=O)N[C@@H](CC(=O)O)C1=O` [compound 2278] ({CH2CO}-FYD[NHexGly]YLN[Orn][NMeNle][Ahp(2)]P[Tle]SC[AEEA][γGlu][AEEA][Aun]-OH; thioether N-14), the half-inhibitory concentration (IC50) came to 28.2 nM. As to `CCCCCCN1CC(=O)N[C@@H](Cc2ccc(O)cc2)C(=O)N[C@@H](CC(C)C)C(=O)N[C@@H](CC(N)=O)C(=O)N[C@@H](CCCN)C(=O)N(C)[C@@H](CCCC)C(=O)N[C@@H](CCCCC)C(=O)N2CCC[C@H]2C(=O)N[C@@H](C(C)(C)C)C(=O)N[C@@H](C(C)C)C(=O)N[C@H](C(=O)NCCOCCOCC(=O)N[C@@H](CCC(=O)NCCOCCOCC(=O)NCCCCCCCCCCC(=O)O)C(=O)O)CSCC(=O)N[C@@H](Cc2ccccc2)C(=O)N[C@@H](Cc2ccc(O)cc2)C(=O)N[C@@H](CC(=O)O)C1=O` [compound 2279] ({CH2CO}-FYD[NHexGly]YLN[Orn][NMeNle][Ahp(2)]P[Tle]VC[AEEA][γGlu][AEEA][Aun]-OH; thioether N-14), the IC50 amounted to 28.6 nM.
